Experimental data from PMC3104491 (mBio, 2011).

T1: CTL843 (SAMHT, SAM/SAH transporter) (Chlamydia trachomatis, UniProt B0B8F4)
T1 sequence (B0B8F4 1-327): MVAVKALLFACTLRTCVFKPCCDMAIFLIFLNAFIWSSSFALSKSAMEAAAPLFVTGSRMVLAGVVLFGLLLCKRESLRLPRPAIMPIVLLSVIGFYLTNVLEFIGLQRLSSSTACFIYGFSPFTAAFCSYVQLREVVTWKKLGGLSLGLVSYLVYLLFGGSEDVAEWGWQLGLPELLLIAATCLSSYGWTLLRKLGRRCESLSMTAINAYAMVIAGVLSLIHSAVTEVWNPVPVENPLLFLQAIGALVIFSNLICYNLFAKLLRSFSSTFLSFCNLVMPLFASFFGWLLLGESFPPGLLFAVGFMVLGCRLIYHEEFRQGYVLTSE


Tests used:
[1] = biological target: T1, CTL843 (SAMHT, SAM/SAH transporter); experiment: inhibition of […]SAM uptake in whole E. coli cells expressing CTL843; type: cell-based
[2] = substrate: C[S@@+](CC[C@H](N)C(=O)O)C[C@H]1O[C@@H](n2cnc3c(N)ncnc32)[C@H](O)[C@@H]1O; experiment: cells, lysate or membranes

Ki [1] [µM]	Molecule	Km [2] [µM]
4.12	Nc1ncnc2c1ncn2[C@@H]1O[C@H](CSCC[C@H](N)C(=O)O)[C@@H](O)[C@H]1O [SAH, S-Adenosyl-L-homocysteine]	–
–	CTL843 (SAMHT, SAM/SAH transporter) (Chlamydia trachomatis L2/434/Bu) (protein) MVAVKALLFACTLRTCVFKPCCDMAIFLIFLNAFIWSSSFALSKSAMEAAAPLFVTGSRMVLAGVVLFGLLLCKRESLRLPRPAIMPIVLLSVIGFYLTNVLEFIGLQRLSSSTACFIYGFSPFTAAFCSYVQLREVVTWKKLGGLSLGLVSYLVYLLFGGSEDVAEWGWQLGLPELLLIAATCLSSYGWTLLRKLGRRCESLSMTAINAYAMVIAGVLSLIHSAVTEVWNPVPVENPLLFLQAIGALVIFSNLICYNLFAKLLRSFSSTFLSFCNLVMPLFASFFGWLLLGESFPPGLLFAVGFMVLGCRLIYHEEFRQGYVLTSE	5.88 ± 0.11
